Structures can show the parent of a compound that is named as a salt.
melting point: 245.8 °C
SMILES: c1cc2c(-c3cn[nH]c3)ncnn2c1 (as salt: HCl) [Compound 13c, 4-(1H-Pyrazol-4-yl)pyrrolo[1,2-f][1,2,4]triazine]

— patent publication US20130071415A1, “Heterocyclic Compounds as Janus Kinase Inhibitors” (BioCryst Pharmaceuticals, Inc., priority 2010, published 2013)
